Eight compounds from BindingDB's records for doi:10.1021/jm030115o (Johnson and Johnson Pharmaceutical Research and Development, 2003) can be followed below.

For orientation: IC50 means the concentration at which inhibition is half-maximal. A lower IC50 goes with inhibition by little substance.

The nature of the experiment: Inhibition of Glycogen synthase kinase-3beta (GSK3-beta).
`O=C1NC(=O)C2=C1c1cn(c3ncccc13)CCOCCOCCOCCOCCOCCn1cc2c2cccnc21` [17,20,23,26,29-pentaoxa-4,12,14,32,34-pentaazahexacyclo[30.6.1.17,14.02,6.08,13.033,38]tetraconta-1(39),2(6),7(40),8,10,12,33,35,37-nonaene-3,5-dione]: 0.403 µM corresponded to half-maximal inhibition (IC50).

`O=C1NC(=O)C2=C1c1cn(c3ccccc13)CCOCCOCCOCCOCCOCCn1cc2c2ccccc21` [17,20,23,26,29-pentaoxa-4,14,32-triazahexacyclo[30.6.1.17,14.02,6.08,13.033,38]tetraconta-1(39),2(6),7(40),8,10,12,33,35,37-nonaene-3,5-dione] returned an IC50 of 0.051 µM.

`O=C1NC(=O)C2=C1c1cn(c3ncccc13)CCOCCOCCOCCOCCn1cc2c2cccnc21` [17,20,23,26-tetraoxa-4,12,14,29,31-pentaazahexacyclo[27.6.1.17,14.02,6.08,13.030,35]heptatriaconta-1(36),2(6),7(37),8,10,12,30,32,34-nonaene-3,5-dione] had an IC50 of 0.048 µM.

The compound `O=C1NC(=O)C2=C1c1cn(c3ccccc13)CCOCCOCCOCCOCCn1cc2c2ccccc21` [17,20,23,26-tetraoxa-4,14,29-triazahexacyclo[27.6.1.17,14.02,6.08,13.030,35]heptatriaconta-1(36),2(6),7(37),8,10,12,30,32,34-nonaene-3,5-dione] yielded an IC50 of 0.026 µM.

`O=C1NC(=O)C2=C1c1cn(c3ncccc13)CCOCCOCCOCCn1cc2c2cccnc21` [17,20,23-trioxa-4,12,14,26,28-pentaazahexacyclo[24.6.1.17,14.02,6.08,13.027,32]tetratriaconta-1(33),2(6),7(34),8,10,12,27,29,31-nonaene-3,5-dione] displayed an IC50 of 0.034 µM.

The compound `O=C1NC(=O)C2=C1c1cn(c3ncccc13)CCOCCOCCn1cc2c2cccnc21` [17,20-dioxa-4,12,14,23,25-pentaazahexacyclo[21.6.1.17,14.02,6.08,13.024,29]hentriaconta-1(30),2(6),7(31),8,10,12,24,26,28-nonaene-3,5-dione] yielded an IC50 of 0.62 µM.

Compound `O=C1NC(=O)C2=C1c1cn(c3ccccc13)CCOCCOCCn1cc2c2cccnc21` [17,20-dioxa-4,12,14,23-tetraazahexacyclo[21.6.1.17,14.02,6.08,13.024,29]hentriaconta-1(30),2(6),7(31),8,10,12,24,26,28-nonaene-3,5-dione] had an IC50 of 0.138 µM.

`O=C1NC(=O)C2=C1c1cn(c3ccccc13)CCOCCOCCn1cc2c2ccccc21` [17,20-dioxa-4,14,23-triazahexacyclo[21.6.1.17,14.02,6.08,13.024,29]hentriaconta-1(30),2(6),7(31),8,10,12,24,26,28-nonaene-3,5-dione] came in with an IC50 of 0.136 µM.
